This test relates to HIV-1. Kind of test: Effect of protease inhibitor treatment on plasma HIV RNA levels in transgenic mice. Type of test: in vivo. From the text: (iv) Quantitation of plasma HIV RNA levels: HIV RNA in the mouse plasma was quantitated by using the Roche AMPLICOR HIV-1 MONITOR™ kits (Roche Diagnostic Systems, Branchburg, N.J.) which can measure virion associated HIV-1 RNA in plasma at concentrations as low as 400 RNA copies/ml as described (Pettoello-Mantovani, M., et al., J. Infect. Dis.1 77:337-346, 1998). After plasma was isolated from the peripheral blood of the JR-CSF TG mice, an internal HIV quantitation standard (QS), a synthetic RNA molecule with primer binding sites identical to the HIV target and an internal probe sequence specific to the QS RNA molecule, was added to 200 μl of each plasma sample. RNA was then extracted from the plasma samples with a Lysis Reagent containing guanidine thiocyanate, precipitated with isopropanol, resuspended in reaction buffer and a 142 base pair sequence in the HIV gag gene was amplified by reverse transcription and PCR using rtth pol and biotinylated primers SK431 and SK462. In order to prevent PCR product contamination, dUTP was incorporated during the PCR reaction and then all of the samples were treated with AmpErase prior to PCR to eliminate carryover of any dUTP-containing PCR product. The biotinylated HIV and QS amplicons were quantitated by detection in separate wells of a microwell plate coated with HIV-specific and QS-specific oligonucleotide probes, respectively, using avidin-horseradish peroxidase conjugate and a calorimetric reaction for horseradish peroxidase. The HIV and QS amplicons were measured in a dynamic range from 400 to 750,000 copies/ml by performing 5-fold serial dilutions of the amplicons in the HIV-specific and QS-specific wells of the microplate (rows A to F and G to H, respectively). The HIV RNA copy number was then calculated from the known input copy number of the QS RNA, the optical densities at 450 nm of the HIV-well and the QS-well that fell within a defined range, and the dilution factors associated with the selected wells.
First, the mean plasma viral levels in the hu-CD4/CCR5/JRCSF TG mice are higher that in the JR-CSF TG mice. […]

[1] abbreviates: hu-CD4/CCR5/JRCSF TG mice, FIG. 14.

Turning to `CC(C)c1nc(CN(C)C(=O)N[C@H](C(=O)N[C@@H](Cc2ccccc2)C[C@H](O)[C@H](Cc2ccccc2)NC(=O)OCc2cncs2)C(C)C)cs1` [protease inhibitor, ritonavir], the “plasma viremia after treatment with a protease inhibitor” value (JR-CSF TG mice) is “did not decrease and actually went up”. Also, under setting [1], the “plasma HIV RNA levels after the protease inhibitor was stopped” value is on record as “went back up” and the “plasma HIV RNA levels after treatment with the protease inhibitor” value was “markedly decreased”.
